Experimental data as given in patent US20060051316A1, “Remedy” (priority 2002, published 2006).

Tests used:
[1] = tested on: BMP-2 production of human osteosarcoma cell strain HuO9; assay: Enhancing activity for BMP-2 production, enzyme immunoassay of culture medium; assay type: cell-based; conditions: for Enhancing Activity for BMP-2 Production: HuO9; for Enhancement of BMP-2 production (result in words): HuO9 cells
Description: Human osteosarcoma cell strain HuO9 was suspended in a DMEM medium (manufactured by Bio Whittaker) containing 10% fetal bovine serum (manufactured by Bio Whittaker) so as to have a concentration of 1×10^5 cells/ml. The suspension was put into a 96-well plate in an amount of 0.1 ml per well, and the cells were cultured sterilely. After the cells were cultured for 2 days, the medium was exchanged with a fresh medium. The fucoidan derived from Kjellmaniella crassifolia obtained in item (1) of Reference Example 1 was added thereto as a sample, and the cells were cultured for 48 hours. Next, the concentration of bone morphogenetic protein-2 (BMP-2) in the culture medium was measured with enzyme immunoassay method (BMP-2 Immunoassay: manufactured by GT). The enhancing activity for BMP-2 production was expressed by setting as a control one without addition of the sample, and defining the BMP-2 concentration in the cell culture medium (the amount of BMP-2 production of a cell) as 100%.

[2] = tested on: Mouse embryo derived cell strain C3H10T1/2; assay: Induction of differentiation into osteoblasts, alkaline phosphatase activity in cells; assay type: cell-based; conditions: for Alkaline Phosphatase Activity: 7 days, C3H10T1/2, control = 100%, average of two experiments
Description: Mouse embryo derived cell strain C3H10T1/2 was suspended in a DMEM medium containing 10% fetal bovine serum so as to have a concentration of 3×10^4 cells/ml. The suspension was put into a 96-well plate in an amount of 0.1 ml per well, and the cells were cultured sterilely. After the cells were cultured for 3 days, the medium was exchanged with a fresh medium. Heparan sulfate, or the Chlorella sulfated polysaccharide fraction CSP-I or CPS-II obtained in Reference Example 4 was added thereto as a sample, and the cells were cultured for 7 days. Subsequently, differentiation of C3H10T1/2 into osteoblasts was determined using an increase of the alkaline phosphatase activity in the cells as an index. The cells were washed once with PBS. One-hundred microliters of a reaction substrate solution (100 mM diethanolamine buffer pH 10.0, 2 mM magnesium chloride, 1 mM p-nitrophenyl phosphoric acid) was added thereto, and the reaction was carried out at 37° C. for 30 minutes. Next, 100 μl of 0.2 N sodium hydroxide was added thereto to stop the reaction, and the amount of p-nitrophenol which was released was determined with an absorbance at 405 nm. The alkaline phosphatase activity when a sample was added was expressed by setting as a control one without addition of the sample, wherein the alkaline phosphatase activity of the control was defined as 100%. The activity indicates an induction activity of differentiation into osteoblasts. The experiments were carried out twice, and the average value was taken.

[3] = 10 μg/ml, control = 100% (0.110 ng/ml)
[4] = 100 μg/ml, control = 100% (0.110 ng/ml)
[5] = 500 μg/ml, control = 100% (0.201 ng/ml for 7-12SFd-F, 0.130 ng/ml for chondroitin sulfate B and pectic acid)
[6] = 1000 μg/ml, control = 100% (0.201 ng/ml for 7-12SFd-F, 0.130 ng/ml for chondroitin sulfate B and pectic acid)
[7] = 10 μg/ml, control = 100% (0.083 ng/ml)
[8] = 100 μg/ml, control = 100% (0.083 ng/ml carrageenans, 0.070 ng/ml low-molecular-weight heparin)

Molecule | Enhancement of BMP-2 production (result in words) [1] | Enhancing Activity for BMP-2 Production [1, 7] [%] | Enhancing Activity for BMP-2 Production [1, 8] [%] | further results
heparin | enhance BMP-2 production in a concentration-dependent manner |  |  | Enhancing Activity for BMP-2 Production [1, 3]: 435.1%; Enhancing Activity for BMP-2 Production [1, 4]: 1339%
chondroitin sulfate B | enhance BMP-2 production in a concentration-dependent manner |  |  | Enhancing Activity for BMP-2 Production [1, 5]: 524.5%; Enhancing Activity for BMP-2 Production [1, 6]: 846.2%
O=C(/C=C/c1ccc(O)c(O)c1)O[C@@H]1C[C@](O)(C(=O)O)C[C@@H](O)[C@H]1O [Chlorogenic Acid, chlorogenic acid] | enhance BMP-2 production in a concentration-dependent manner |  |  | Enhancing Activity for BMP-2 Production ([1]; 88.6 μg/ml, control = 100% (0.041 ng/ml)): 319.5%; Enhancing Activity for BMP-2 Production ([1]; 177.2 μg/ml, control = 100% (0.041 ng/ml)): 320.4%
carrageenan ι | enhance BMP-2 production in a concentration-dependent manner | 201.2 | 517.5 | 
low-molecular-weight heparin | enhance BMP-2 production in a concentration-dependent manner |  | 390.0 | Enhancing Activity for BMP-2 Production ([1]; 1000 μg/ml, control = 100% (0.070 ng/ml)): 807.1%
Heparan sulfate |  |  |  | Alkaline Phosphatase Activity ([2]; 10 μg/ml): 132.2%; Alkaline Phosphatase Activity ([2]; 100 μg/ml): 178.0%; Induction of differentiation into osteoblasts (result in words) ([2]; C3H10T1/2 cells): induce differentiation into osteoblasts in a concentration-dependent manner
carrageenan κ | enhance BMP-2 production in a concentration-dependent manner | 219.3 | 263.3 | 
pectic acid | enhance BMP-2 production in a concentration-dependent manner |  |  | Enhancing Activity for BMP-2 Production [1, 5]: 220.3%; Enhancing Activity for BMP-2 Production [1, 6]: 242.1%
carrageenan λ | enhance BMP-2 production in a concentration-dependent manner | 359.6 | 485.5 | 
dextran sulfate | enhance BMP-2 production in a concentration-dependent manner |  |  | Enhancing Activity for BMP-2 Production [1, 3]: 2789%; Enhancing Activity for BMP-2 Production [1, 4]: 2984%
